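Exposure lasted 48 hours, with cells grown in 96-well plates and compounds tested at five concentrations. TGI marks complete inhibition of growth.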
Columns and labels:
Assay in all cases: NCI anticancer screen, dose series, 48 h
BT-549 breast = tested on: BT-549 breast
CCRF-CEM leukemia = tested on: CCRF-CEM leukemia
COLO 205 colon = tested on: COLO 205 colon
DU-145 prostate = tested on: DU-145 prostate
EKVX NSCLC = tested on: EKVX NSCLC
HT29 colon = tested on: HT29 colon
KM12 colon = tested on: KM12 colon
LOX IMVI melanoma = tested on: LOX IMVI melanoma
SF-268 CNS = tested on: SF-268 CNS
SF-295 CNS = tested on: SF-295 CNS
SK-MEL-28 melanoma = tested on: SK-MEL-28 melanoma
SNB-19 CNS = tested on: SNB-19 CNS
TK-10 renal = tested on: TK-10 renal
UO-31 renal = tested on: UO-31 renal

Measured: TGI

CCOC(=O)C1=NN(c2ccccc2)C2=CC(C)=NN(C)C(=S)N21
> 100 µM: all assays above

From PubChem BioAssay (NCI)
